What was measured:
Format in all cases: cell-based
Huh7 = assay: CellTiter-Glo cancer cell growth inhibition, Huh7; details: Homo sapiens, Huh-7, 72 h
From the text: (§1) The CellTiter-Glo® Luminescent Cell Viability Assay is a sensitive homogeneous method to determine the number of viable cells in culture, Detection is based on using the luciferase reaction to measure the amount of ATP from viable cells. The amount of ATP in cells correlates with cell viability. Within minutes after a loss of membrane integrity, cells lose the ability to synthesize ATP, and endogenous ATPases destroy any remaining ATP; thus the levels of ATP fall precipitously. The CellTiter-Glo® Reagent does three things upon addition to cells. It lyses cell membranes to release ATP; it inhibits endogenous ATPases, and it provides luciferin, luciferase and other reagents necessary to measure ATP using a bioluminescent reaction. The unique properties of a proprietary stable luciferase.
(§2) All assays were performed by Reaction Biology Corporation (Malvern, Pa.) or ChemDiv, Inc. (San Diego, Calif.). All cell lines were purchased from American Type Culture Collection (ATCC, Manassas, Va.), except Huh 7 (RIKEN, Toyo, Japan) and HepaRG (Life Technologies, Carlsbad, Calif.).
(§3) Stock solutions ([…]) were diluted with cell culture media to produce 500× serial dilutions and […] of final compound dilutions were added to cells in assay plates to screen a series of 10 doses starting at […]. Final DMSO concentration was 0.2%. Assay plates are centrifuged at 100 rpm, 1 minute and kept at 37° C., 5% CO2, humidified atmosphere. […] Luminescence intensity was measured for each well using the Tecan M 1000 microplate reader after 5 min of incubation with CellTiter-Glo Reagent. The number of viable cells in culture was determined based on quantitation of the ATP present in each culture well. […] The EC50 curves were plotted and […] values were calculated using the GraphPad Prism 4 program based on a sigmoidal dose-response equation.

HepaRG = assay: CellTiter-Glo cancer cell growth inhibition, HepaRG; details: Homo sapiens, 72 h
From the text: as §1, §2, §3

A673 = assay: CellTiter-Glo cancer cell growth inhibition, A673; details: Homo sapiens, A673, 72 h
From the text: as §1, §2, §3

EC50 (Huh7)	EC50 (HepaRG)	EC50 (A673)	SMILES
0.08 µM	0.048 µM	0.01 µM	O=C1NC(=O)c2c1c1c3ccccc3[nH]c1c1c2c2cc(F)c(O)cc2n1CCN1CCOCC1 [Compound 19, 3-fluoro-2-hydroxy-13-(2-morpholin-4-ylethyl)-12,13-dihydro-5H-indolo[2,3-a]pyrrolo[3,4-c]carbazole-5,7(6H)-dione]
0.041 µM			O=C1NC(=O)c2c1c1c3cc(F)c(O)cc3[nH]c1c1c2c2ccccc2n1CCN1CCOCC1 [Compound 18, 3-fluoro-2-hydroxy-12-(2-morpholin-4-ylethyl)-12,13-dihydro-5H-indolo[2,3-a]pyrrolo[3,4-c]carbazole-5,7(6H)-dione]

— US20220274997A1, “PIM KINASE INHIBITOR COMPOSITIONS AND USES THEREOF” (Snap Bio, Inc., priority 2019, published 2022)
